Experimental data published in patent US7304057B2, “Substituted 6-membered N-heterocyclic compounds and method for their use as neurological regulator” (Institute of Pharmacology and Toxicology Accademy of …, priority 2001, dated 2007).

Assays:
[1] = test system: chick embryos dorsal root ganglia; test: chick embryo dorsal root ganglion cultures free of serum, neurite process scoring; type: cell-based; details: 48 h; for Average scoring: score 0-3 of neurite processes, average of 20 ganglia, NGF-only control 1.0
Experimental: The neurotrophic activity of compounds of the present invention can be determined through several biological models in vitro, e.g. the model of chick embryos dorsal root ganglion cultures free of serum in vitro.
In a sterile environment, dorsal root ganglia were dissected from chick embryos of 8 days gestation and inoculated in rat rail collagen coated culture bottles (5 to 6 dorsal root ganglia per bottle, and two bottles per dosage). After 1 hour of attachment in a 37° C., 5% CO2 incubator, NGF (0.30 ng/ml) containing culture medium free of serum (DMEM) and the compound of example 4 of the present invention were added. The control groups were treated only with the same amount of NGF and culture medium. […] The representative micrographic pictures showing that compound of example 4 promotes the growth of chick embryos dorsal root ganglia processes were give in FIG. 1. The results of illustrative compound of example 4 at different concentrations promoting the growth of chick embryos dorsal root ganglia processes were outlined in table 1, wherein the scoring is the average scoring of 20 ganglia.

[2] = test system: mice sympathetic nerve endings damaged by 6-hydroxy-dopamine (6-OHDA); test: adult mice sympathetic nerve endings damaged by 6-OHDA, residual noradrenaline in submaxillary glands; type: in vivo; details: 5 mg/kg sc, 6-OHDA 8 mg/kg ip, Kunming female mice; FIG. 3, **P<0.01 vs model control group
Experimental: The neurotrophic activity of the compounds of the present invention can also be determined in several animal pharmacological models in vivo, such as the model of adult mice sympathetic nerve endings damaged by 6-hydroxy-dopamine (6-OHDA).
Kunming species female mice (♀) having a body weight of 18-22 g are randomly divided into the following groups: normal control group, model control group, FK506 (2 mg/kg) group, and the group of compound of the present invention (5 mg/kg) (10 mice per group). The mice are administrated with 6-OHDA (8 mg/kg) by intraperitoneal injection (ip) before 4 hours and after 4 continuous days of subcutaneous injection (sc) of the compound, while the control groups are administrated with the equivalent quantity of carrier by subcutaneous injection. After two weeks of the last administration, the mice are killed by luxation, and the two submaxillary glands of each of the mice are rapidly excised and weighed, placed in a glass grinder, then is homogenated with a homogenating liquid containing internal-standard, and centrifuged at 2000 g for 30 minutes. 20 μL of the obtained supernatant is directly injected in an HPLC-electrochemical detector to measure the content of noradrenaline (NE) in the submaxillary glands of the mice.

CCOC(=O)C(CC(C)C)NC(=O)[C@@H]1CSCCN1S(=O)(=O)c1ccc(C)cc1 (stereo partly drawn) [Example 4, 2-{[(3R)-4-(4-toluenesulfonyl)thiomorpholine-3-carbonyl]amino}-4-methyl-pentanoic acid ethyl ester]
Average scoring ([1]; 0.1 pM compound + NGF (0.3 ng/mL)): 2.15 | Average scoring ([1]; 1.0 pM compound + NGF (0.3 ng/mL)): 2.16 | Average scoring ([1]; 10 pM compound + NGF (0.30 ng/mL)): 1.50 | growth of chick embryos dorsal root ganglia processes ([1]; concentration of from 0.1 to 1.0 pmol/L, with NGF (0.30 ng/ml)): promote the growth of chick embryos dorsal root ganglia processes | residual NE level in the submaxillary glands [2]: raise the residual NE level in the submaxillary glands of the mice
